Consider 15 compounds from patent publication US11312727B1, “Macrocyclic flu endonuclease inhibitors” (Janssen BioPharma, Inc., priority 2018, dated 2022).

SMILES strings stand for the structures.

A short description of series [1]: in vitro. Conditions: human, CC50, uninfected A549 cells, CellTiter-Glo.
Series [2] has as its system Influenza strain A549 A/WSN/33 (H1N1). Description: microbe, parasite or virus in culture. The class given is cell-based. Conditions: Influenza A virus, A549, 20 h, A549 cells, influenza A/WSN/33 (H1N1), 20 hours incubation; read-out: A549_A(H1N1) EC50.

As usually defined, the CC50 is the concentration at which the toxic effect on the cells reaches its halfway point. As usually defined, the EC50 is the concentration giving half of the maximal effect. Consider `CC[C@@H]1/C=C\COc2cc(F)c(F)c3c2[C@@H](c2ccccc2SC3)N2CN1C(=O)c1c(O)c(=O)ccn12` (single isomer, unassigned) [Compound 126BB, (13*R,21a*S,Z)-13-ethyl-24,25-difluoro-16-hydroxy-6,10,13,21a-tetrahydro-7,8-(epiprop[1]en[1]yl[3]ylidene)-14,21-methanobenzo[6,7]thiepino[4,5-c]pyrido[1,2-f][1]oxa[5,6,9]triazacyclotridecine-15,17-dione], for which, in series [1], the 50% cytotoxic concentration (CC50) is more than 200 nM. Moreover, the EC50 in series [2] was 1 nM.
On the same counts, the results for `O=C1c2c(O)c(=O)ccn2N2CN1C/C=C\COc1cc(F)c(F)cc1[C@H]2c1ccccn1` (single isomer, unassigned) [Compound 70B, (18*S,*Z)-2,3-difluoro-12-hydroxy-18-(pyridin-2-yl)-6,9-dihydro-18H-10,17-methanobenzo[b]pyrido[1,2-f][1]oxa[5,6,9]triazacyclotridecine-11,13-dione] are more than 200 nM and 32 nM.
On the same counts, the results for `O=C1c2c(O)c(=O)ccn2N2CN1CC/C=C/COc1c(ccc(Cl)c1Cl)[C@@H]2c1ccccc1` (single isomer, unassigned) [Compound 111A, (2*S,*E)-33,34-dichloro-15-hydroxy-2-phenyl-12,13,14,16-tetrahydro-11H-4-oxa-1(1,3)-pyrido[2,1-f][1,2,4]triazina-3(1,2)-benzenacyclononaphan-6-ene-14,16-dione] are more than 200 nM and 4.3 nM.
As for `O=C1c2c(O)c(=O)ccn2N2CN1C[C@H]1C[C@H]1COc1cccc3c1[C@H]2c1ccccc1SC3` (single isomer, unassigned) [Compound 118AA, (1a*R,11b*S,20a*S)-17-hydroxy-1a,2,6,11 b,17,17a,20,20a-octahydro-1H-5,4-(epiprop[1]en[1]yl[3]ylidene)-12,19-methanobenzo[6,7]thiepino[4,5-c]cyclopropa[k]pyrido[1,2-f][1]oxa[5,6,9]triazacyclotridecine-16,18-dione], the CC50 in series [1] is more than 200 nM. In addition, the EC50 in series [2] is 6.2 nM.
For `O=C1c2c(O)c(=O)ccn2N2CN1C/C=C\COc1c(ccc(F)c1F)[C@@H]2c1ccccc1C1CC1` (single isomer, unassigned) [Compound 136B, (18*S,*Z)-18-(2-cyclopropylphenyl)-3,4-difluoro-12-hydroxy-6,9-dihydro-18H-10,17-methanobenzo[b]pyrido[1,2-f][1]oxa[5,6,9]triazacyclotridecine-11,13-dione] the same measures were more than 200 nM and more than 100 nM.
Take `C[C@H]1/C=C/COc2c(F)cccc2[C@@H](c2ccccc2)N2CN1C(=O)c1c(O)c(=O)ccn12` (single isomer, unassigned) [Compound 141AB, (9*S,18*R,E)-4-fluoro-12-hydroxy-9-methyl-18-phenyl-6,9-dihydro-18H-10,17-methanobenzo[b]pyrido[1,2-f][1]oxa[5,6,9]triazacyclotridecine-11,13-dione]: in series [1], the CC50 is more than 50 nM. The EC50 in series [2] worked out at 2 nM.
On the same counts, the results for `CC[C@H]1/C=C\COc2cccc3c2[C@H](c2ccccc2SC3)N2CN1C(=O)c1c(O)c(=O)ccn12` [Compound 92AA, (13S,21aR,Z)-13-ethyl-16-hydroxy-6,10,13,21a-tetrahydro-7,8-(epiprop[1]en[1]yl[3]ylidene)-14,21-methanobenzo[6,7]thiepino[4,5-c]pyrido[1,2-f][1]oxa[5,6,9]triazacyclotridecine-15,17-dione] are more than 1000 nM and 108 nM.
On the same counts, the results for `O=C1c2c(O)c(=O)ccn2N2CN1C[C@@H]1C[C@H]1COc1ccccc1[C@H]2c1ccccc1` (single isomer, unassigned) [Compound 80BB, (1a*R,8*R,17a*R)-14-hydroxy-8-phenyl-1a,2,17,17a-tetrahydro-1H,8H-9,16-methanobenzo[b]cyclopropa[k]pyrido[1,2-f][1]oxa[5,6,9]triazacyclotridecine-13,15-dione] are more than 1000 nM and more than 500 nM.
The compound `O=C1c2c(O)c(=O)ccn2N2CN1C/C=C\CCc1cnccc1[C@H]2c1ccccc1` (single isomer, unassigned) [Compound 56A, (18*R,*Z)-12-hydroxy-18-phenyl-5,6,9,18-tetrahydro-10,17-methanodipyrido[1,2-b:3′,4′-k][1,2,5]triazacyclotridecine-11,13-dione] yielded a CC50 in series [1] of more than 2000 nM. For the same compound, the half-maximal effective concentration (EC50) in series [2] was more than 1000 nM.
For `O=C1c2c(O)c(=O)ccn2N2CN1C/C=C\COc1cccc3c1[C@@H]2c1ccccc1SC3` [Compound 46A, (21R,Z)-16-hydroxy-6,10,13,21a-tetrahydro-7,8-(epiprop[1]en[1]yl[3]ylidene)-14,21-methanobenzo[6,7]thiepino[4,5-c]pyrido[1,2-f][1]oxa[5,6,9]triazacyclotridecine-15,17-dione] the same measures were more than 2000 nM and 64 nM.
For `CC[C@@H]1C/C=C/COc2c(F)cccc2[C@@H](c2ccccc2)N2CN1C(=O)c1c(O)c(=O)ccn12` (single isomer, unassigned) [Compound 105AB, (2*R,9*R,*E)-9-ethyl-33-fluoro-15-hydroxy-2-phenyl-12,13,14,16-tetrahydro-11H-4-oxa-1(1,3)-pyrido[2,1-f][1,2,4]triazina-3(1,2)-benzenacyclononaphan-6-ene-14,16-dione] the same measures were more than 200 nM and 1.9 nM.
`CSc1ccccc1[C@@H]1c2cccc(F)c2OC/C=C\CN2CN1n1ccc(=O)c(O)c1C2=O` (single isomer, unassigned) [Compound 119B, (18*S,*Z)-4-fluoro-12-hydroxy-18-(2-(methylthio)phenyl)-6,9-dihydro-18H-10,17-methanobenzo[b]pyrido[1,2-f][1]oxa[5,6,9]triazacyclotridecine-11,13-dione] displayed a CC50 in series [1] of more than 200 nM. The EC50 in series [2] was found to be 22 nM.
On the same counts, the results for `O=C1c2c(O)c(=O)ccn2N2CN1C/C=C\COc1cccc3c1[C@@H]2c1ccccc1OC3` (single isomer, unassigned) [Compound 53B, (21a*S,Z)-16-hydroxy-6,10,13,21a-tetrahydro-7,8-(epiprop[1]en[1]yl[3]ylidene)-14,21-methanobenzo[6,7]oxepino[4,5-c]pyrido[1,2-f][1]oxa[5,6,9]triazacyclotridecine-15,17-dione] are more than 2000 nM and more than 1000 nM.
For `Cc1ccc2c(c1F)OC/C=C\CN1CN([C@@H]2c2ccccc2)n2ccc(=O)c(O)c2C1=O` (single isomer, unassigned) [Compound 135A, (18*R,Z)-4-fluoro-12-hydroxy-3-methyl-18-phenyl-6,9-dihydro-18H-10,17-methanobenzo[b]pyrido[1,2-f][1]oxa[5,6,9]triazacyclotridecine-11,13-dione] the same measures were more than 200 nM and 7.3 nM.
On the same counts, the results for `O=C1c2c(O)c(=O)ccn2N2CN1CC/C=C/COc1cc(F)c(F)c3c1[C@H]2c1ccccc1SC3` (single isomer, unassigned) [Compound 88D, (23b*S, E)-16,17-difluoro-6-hydroxy-10,13,18,23b-tetrahydro-9H-1,8-methano[1]benzothiepino[5,4,3-lm]pyrido[2,1-i][1,7,10,11]benzoxatriazacyclotetradecine-5,7-dione] are more than 100 nM and 1 nM.
